Earlier results in patent US20100323028A1, “METHOD AND COMPOSITION FOR TREATING PULMONARY HEMORRHAGE” (JBS UNITED, INC., priority 2007, published 2010).

Test system: horses
Settings: alone or in combination not able to totally eliminate EIPH

Which “Effect on EIPH” value does the source give for `NS(=O)(=O)c1cc(C(=O)O)c(NCc2ccco2)cc1Cl` [furosemide] here?
The value was “effective in reducing EIPH”.
